Experimental data as given in PMC5515969, “Effects of 31 FDA approved small-molecule kinase inhibitors on isolated rat liver mitochondria” (Archives of Toxicology, 2016).
Like-named read-outs stand apart in the source and are kept apart here.

Tests used:
RCC I = RCC I activity in submitochondrial particles; assay type: biochemical, rat; design: key to RCC I at 10XCmax / RCC I at 100XCmax / RCC I at 50XCmax / RCC I at 30XCmax / RCC I at 20XCmax: activity relative to DMSO-treated controls (control set as 1 = 100%); conditions: for RCC activity I: 15 min
Procedure, shortened: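 Kinase inhibitors were preincubated 15 min with submitochondrial particles (1 mg/ml) before complex activities were measured. RCC I was the rotenone-sensitive portion (activity without minus with rotenone). RCC I/V was read at 340 nm and RCC II at 600 nm every 1 min for 6 min. RCC III and IV were read at 550 nm every 10 s for 2 min. Activities are normalized to DMSO controls set as 1.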

RCC II = biological target: T1, RCC II (Rattus norvegicus, UniProt P21913+Q641Z9+Q6PCT8+Q920L2); experiment: RCC II activity in submitochondrial particles; assay type: biochemical; design: key: activity relative to DMSO-treated controls (control set as 1 = 100%)
T1 construct: Submitochondrial particles were prepared by subjecting the intact mitochondria to three successive freeze–thaw cycles; from tissue; host or cells: rat liver mitochondria, used as submitochondrial particles
T1 sequence (Q920L2 35-656): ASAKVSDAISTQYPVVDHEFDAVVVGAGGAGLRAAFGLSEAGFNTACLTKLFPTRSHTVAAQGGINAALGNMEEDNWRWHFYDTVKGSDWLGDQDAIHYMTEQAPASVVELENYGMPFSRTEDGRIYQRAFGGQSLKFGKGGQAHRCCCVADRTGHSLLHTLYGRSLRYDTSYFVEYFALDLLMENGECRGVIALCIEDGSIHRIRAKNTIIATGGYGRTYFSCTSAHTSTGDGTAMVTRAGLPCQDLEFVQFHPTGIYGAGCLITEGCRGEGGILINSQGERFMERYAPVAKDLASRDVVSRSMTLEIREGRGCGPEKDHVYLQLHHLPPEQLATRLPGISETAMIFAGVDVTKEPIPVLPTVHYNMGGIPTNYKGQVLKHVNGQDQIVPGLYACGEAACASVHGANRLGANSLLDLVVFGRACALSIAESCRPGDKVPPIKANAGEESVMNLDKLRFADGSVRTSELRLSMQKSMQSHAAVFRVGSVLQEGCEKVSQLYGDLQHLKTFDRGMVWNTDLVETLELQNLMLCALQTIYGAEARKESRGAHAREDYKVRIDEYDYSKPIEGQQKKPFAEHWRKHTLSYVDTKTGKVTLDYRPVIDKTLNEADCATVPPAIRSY
T1 sequence (P21913 31-282): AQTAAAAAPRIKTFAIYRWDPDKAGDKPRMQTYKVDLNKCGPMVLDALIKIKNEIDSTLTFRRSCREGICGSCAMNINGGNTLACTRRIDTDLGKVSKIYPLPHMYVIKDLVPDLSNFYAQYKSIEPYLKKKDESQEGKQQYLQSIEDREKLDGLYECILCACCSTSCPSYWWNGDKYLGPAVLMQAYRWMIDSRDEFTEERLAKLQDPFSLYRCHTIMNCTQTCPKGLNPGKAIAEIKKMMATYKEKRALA
T1 sequence (Q641Z9 1-169): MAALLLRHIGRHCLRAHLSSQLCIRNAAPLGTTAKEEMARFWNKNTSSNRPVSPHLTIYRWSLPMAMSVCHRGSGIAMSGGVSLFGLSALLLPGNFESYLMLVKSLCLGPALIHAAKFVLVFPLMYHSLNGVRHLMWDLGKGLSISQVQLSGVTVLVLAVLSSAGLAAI
T1 sequence (Q6PCT8 57-159): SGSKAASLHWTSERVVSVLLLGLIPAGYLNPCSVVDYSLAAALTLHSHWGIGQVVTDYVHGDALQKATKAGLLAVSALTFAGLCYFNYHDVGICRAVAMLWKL
Procedure, shortened: (§1)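 Absorbance kinetics: A340 (RCC I, V) and A600 (RCC II) read each minute over 6 min, A550 (RCC III, IV) every 10 s over 2 min; RCC I taken as […]. Particles (1 mg/ml) pretreated 15 min with compound; DMSO-treated activity = 1.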

RCC V = RCC V activity in submitochondrial particles; assay type: biochemical, rat; conditions: for RCC activity V: 15 min, DMSO-treated = 100; as to RCC V at 5XCmax: key: 0 indicates that the drug had no effects (negative)
Procedure, shortened: as §1

RCC I–V = experiment: Activities of RCC I–V, overall statements; assay type: biochemical, rat; conditions: submitochondrial particles, up to 100-fold Cmax or highest testable concentration
Method: KIs were incubated with submitochondrial particles (1 mg/ml) for 15 min and then RCC I–V activities measured. […] The activities of DMSO-treated samples (controls) were set as 1. […] The difference between the activity from rotenone-containing buffer and rotenone-absent buffer was considered as RCC I activity. […] For measuring RCC I/V and II activity, the changes in absorbance at 340 and 600 nm, respectively, were determined every 1 min for 6 min. For measuring RCC III and RCC IV, the changes in absorbance at 550 nm were measured every 10 s for 2 min.

[1] = ref product labeling, cited from earlier work; for Labeling for cardiotoxicity: BBW: black box warning, W&P: Warnings and Precautions
[2] = design: method as in product labeling; conditions: ref product labeling, cited from earlier work; for Labeling for cardiotoxicity: BBW: black box warning, W&P: Warnings and Precautions
[3] = 50-fold Cmax, DMSO-treated = 100
[4] = 100-fold Cmax, DMSO-treated = 100
[5] = relative to DMSO treated samples

SMILES	RCC I at 10XCmax (RCC I; DMSO treated samples set as 1)	RCC II at 1.0XCmax (RCC II; DMSO treated samples set as 1)	RCC II at 2.5XCmax (RCC II; DMSO treated samples set as 1)	RCC II at 5XCmax (RCC II; DMSO treated samples set as 1)	RCC II at 10XCmax (RCC II; DMSO treated samples set as 1)	RCC II at 20XCmax (RCC II; DMSO treated samples set as 1)	RCC II at 30XCmax (RCC II; DMSO treated samples set as 1)	RCC II at 50XCmax (RCC II; DMSO treated samples set as 1)	RCC II at 100XCmax (RCC II; DMSO treated samples set as 1)	RCC I at 10XCmax (RCC I; [5])	RCC II at 1.0XCmax (RCC II; [5])	RCC II at 2.5XCmax (RCC II; [5])	RCC II at 5XCmax (RCC II; [5])	RCC II at 10XCmax (RCC II; [5])	RCC II at 20XCmax (RCC II; [5])	RCC II at 30XCmax (RCC II; [5])	RCC II at 50XCmax (RCC II; [5])	RCC II at 100XCmax (RCC II; [5])	RCC V at 5XCmax (RCC V; [5])	Potential for cardiotoxicity (based on labeling) [2]	other results
Cc1cc(Nc2ncc(Cl)c(Nc3ccccc3S(=O)(=O)C(C)C)n2)c(OC(C)C)cc1C1CCNCC1 [Ceritinib]	0	0	0	0	0	0	0	0	69.91±10.00	–	–	–	–	–	–	–	–	–	–	–	RCC activity I (RCC I; [3]): 94.04 ± 3.32 % of control; RCC activity I (RCC I; [4]): 63.74 ± 13.12 % of control; RCC I at 100XCmax (RCC I; DMSO-treated = 100): 63.74±13.12; RCC V at 5XCmax (RCC V; DMSO treated samples set as 1): 0; RCC activity V (RCC V; 50-fold Cmax): 71.23 ± 9.65 % of control; RCC V at 50XCmax (RCC V; DMSO treated samples set as 1): 71.23±9.65; RCC activity V (RCC V; 100-fold Cmax): 34.25 ± 2.09 % of control; RCC V at 100XCmax (RCC V; 100XCmax, DMSO treated samples set as 1): 34.25±2.09; RCCs inhibited (RCC I–V): all five RCCs; Labeling for cardiotoxicity [1]: W&P:QT Interval Prolongation; Bradycardia; Potential for cardiotoxicity (based on labeling) [1]: 1
CC(=O)Nc1cccc(-n2c(=O)n(C3CC3)c(=O)c3c(Nc4ccc(I)cc4F)n(C)c(=O)c(C)c32)c1 [Trametinib]	0	0	0	0	0	0	0	0	0	–	–	–	–	–	–	–	–	–	–	–	RCC V at 5XCmax (RCC V; DMSO treated samples set as 1): 0; RCC V at 50XCmax (RCC V; DMSO treated samples set as 1): 0; Labeling for cardiotoxicity [1]: W&P: Cardiomyopathy; Potential for cardiotoxicity (based on labeling) [1]: 1
COc1cc2c(Nc3ccc(Br)cc3F)ncnc2cc1OCC1CCN(C)CC1 [Vandetanib]	–	–	–	–	–	–	–	–	–	0	0	0	0	0	0	0	0	0	0	1	RCC activity I (RCC I; [3]): 87.71 ± 0.58 % of control; RCC I at 50XCmax (RCC I; 50XCmax, relative to DMSO treated samples): 87.71±0.58; RCC activity I (RCC I; [4]): 65.88 ± 7.15 % of control; RCC I at 100XCmax (RCC I; [5]): 65.88±7.15; lowest concentration inhibiting RCC I (RCC I; submitochondrial particles): 50 fold Cmax; RCC activity V (RCC V; 50-fold Cmax): 95.65 ± 4.66 % of control; RCC activity V (RCC V; 100-fold Cmax): 85.15 ± 8.36 % of control; Labeling for cardiotoxicity [2]: BBW
COC(=O)c1ccc2c(c1)NC(=O)/C2=C(\Nc1ccc(N(C)C(=O)CN2CCN(C)CC2)cc1)c1ccccc1 [Nintedanib]	0	0	0	0	0	0	0	0	0	–	–	–	–	–	–	–	–	–	–	–	RCC V at 5XCmax (RCC V; DMSO treated samples set as 1): 0; RCC V at 50XCmax (RCC V; DMSO treated samples set as 1): 0; Potential for cardiotoxicity (based on labeling) [1]: 0
CN(C)C/C=C/C(=O)Nc1cc2c(Nc3ccc(F)c(Cl)c3)ncnc2cc1O[C@H]1CCOC1 [afatinib dimaleate]	0	0	0	0	0	0	0	0	0	–	–	–	–	–	–	–	–	–	–	–	RCC V at 5XCmax (RCC V; DMSO treated samples set as 1): 0; RCC V at 50XCmax (RCC V; DMSO treated samples set as 1): 0; Potential for cardiotoxicity (based on labeling) [1]: 0
O=C(c1ccc(F)c(F)c1Nc1ccc(I)cc1F)N1CC(O)([C@@H]2CCCCN2)C1 [Cobimetinib]	0	0	0	0	0	0	0	0	0	–	–	–	–	–	–	–	–	–	–	–	RCC V at 5XCmax (RCC V; DMSO treated samples set as 1): 0; RCC V at 50XCmax (RCC V; DMSO treated samples set as 1): 0; Labeling for cardiotoxicity [1]: W&P: Cardiomyopathy; Potential for cardiotoxicity (based on labeling) [1]: 1
CCN(CC)CCNC(=O)c1c(C)[nH]c(/C=C2\C(=O)Nc3ccc(F)cc32)c1C [sunitinib malate]	–	–	–	–	–	–	–	–	–	0	0	0	0	0	0	0	0	0	0	1	RCC V at 50XCmax (RCC V; [5]): 0; Labeling for cardiotoxicity [2]: W&P: Cardiovascular events;QT Interval Prolongation and Torsade de Pointes
N#CC[C@H](C1CCCC1)n1cc(-c2ncnc3[nH]ccc23)cn1 [ruxolitinib phosphate]	–	–	–	–	–	–	–	–	–	0	0	0	0	0	0	0	0	0	0	0	RCC V at 50XCmax (RCC V; [5]): 0
COc1cc(Nc2c(C#N)cnc3cc(OCCCN4CCN(C)CC4)c(OC)cc23)c(Cl)cc1Cl [Bosutinib]	–	–	–	–	–	–	–	–	–	0	0	0	0	0	0	0	0	0	0	0	RCC activity I (RCC I; [4]): 88.03 ± 3.01 % of control; RCC I at 100XCmax (RCC I; [5]): 88.03±3.01; RCC V at 50XCmax (RCC V; [5]): 0; RCC activity V (RCC V; 100-fold Cmax): 91.53 ± 6.49 % of control
Cc1nc(Nc2ncc(C(=O)Nc3c(C)cccc3Cl)s2)cc(N2CCN(CCO)CC2)n1 [dasatinib (free base)]	–	–	–	–	–	–	–	–	–	0	0	0	0	0	0	0	0	0	0	1	RCC V at 50XCmax (RCC V; [5]): 0; Labeling for cardiotoxicity [2]: W&P: Cardiovascular events;QT Interval Prolongation
CCCS(=O)(=O)Nc1ccc(F)c(C(=O)c2c[nH]c3ncc(-c4ccc(Cl)cc4)cc23)c1F [Vemurafenib]	–	–	–	–	–	–	–	–	–	0	0	0	0	0	0	0	0	0	0	1	Labeling for cardiotoxicity [2]: W&P: QT Prolongation
CNC(=O)c1ccccc1Sc1ccc2c(/C=C/c3ccccn3)n[nH]c2c1 [Axitinib]	–	–	–	–	–	–	–	–	–	0	0	0	0	0	0	0	0	0	0	1	RCC V at 50XCmax (RCC V; [5]): 0; Labeling for cardiotoxicity [2]: W&P: Cardiac Failure
COc1cc2nccc(Oc3ccc(NC(=O)NC4CC4)c(Cl)c3)c2cc1C(N)=O [Lenvatinib]	0	0	0	0	0	0	0	0	0	–	–	–	–	–	–	–	–	–	–	–	RCC V at 5XCmax (RCC V; DMSO treated samples set as 1): 0; RCC V at 50XCmax (RCC V; DMSO treated samples set as 1): 0
